Source: patent US11242337B2, “Compounds useful for treating gastrointestinal tract disorders” (Ardelyx, Inc., priority 2017, dated 2022)
Where two headings read alike, the source gives them in different places.

System: human duodenum monolayer culture
Assay: Increased trans-epithelial resistance (TEER) in human organoid monolayer cell cultures
Format: cell-based
Settings: 1 μM apical, baseline corrected
Method: Basal media (B consisted of advanced DMEM/F12 containing 10 mM HEPES (Invitrogen, 15630-080), 1:100 Glutamax (Invitrogen, 35050-061), and 1:100 penicillin/streptomycin (Invitrogen, 15140-122). Supplemented basal media (SBM) contained 1:100 N2 (Invitrogen, 17502-048), 1:50 B27 (Invitrogen, 12587-010), 1 mM N-acetylcysteine (Sigma, A9165), and 10 nM [Leu15]-gastrin I (Sigma, G9145). Growth factors used included 50 ng per mL mouse EGF (Peprotech, 315-09), 100 ng per mL mouse noggin (Peprotech, 250-38), 500 ng per mL human R-spondin 1 (R&D, 4645-RS), 100 ng per mL mouse Wnt-3a (R&D, 1324-WN), 20 μM Y-27632 (Tocris, 1254), 10 mM nicotinamide (Sigma, N0636), 500 nM A83-01 (Tocris, 2939), 10 μM SB202190 (Tocris, 1264). Transwells were 0.4 μm pore polyester membrane 24-well Transwell inserts (Corning). Cultures were incubated at 37° C. in 5% CO2.
Human duodenum organoids were cultured in WENRNAS (Wnt, EGF, noggin, R-spondin1, Nicotinamide, A83-01, SB202190) and typically grown for 7-12 days before being used to plate monolayer cultures. On day 0, organoid cultures embedded in Matrigel were treated with TrypLE Express to break organoids into small pieces and/or single cells. The cells were resuspended to 0.5×10^6 cells/mL in SBM containing WENRAY (Wnt, EGF, noggin, R-spondin1, A83-01, Y-27632). Following this step, 200 μL of cell suspension was plated into the apical side of a 24-well Transwell (100,000 cells/well) and 600 μL of SBM with WENRAY was added to the basolateral side. Duodenum cells were differentiated with ENA (EGF, noggin, A83-01) on day 3. The color of apical compartment turns from pink or orange to yellow due to the increase in NHE3 expression after differentiation.
Each human duodenum monolayer culture well was washed twice with fresh SBM on the apical side on day 6 or day 7 before dosing. All compound stocks were 10 mM dissolved DMSO. Each compound stock was individually mixed with fresh SBM to reach final compound concentration 1 μM and dosed only on the apical side of the monolayer (total volume 200 μl). DMSO at the equivalent concentration was used as the vehicle control. Duplicate wells were dosed for each compound. Transepithelial electrical resistance (TEER) was used as a quantitative technique to measure of tight junction permeability. TEER values were recorded (MERS00002, Millipore) before dosing and 30 mins and 1 hr after dosing for all wells. Each of the duplicate TEER values following treatment were corrected for the individual well baseline TEER. Baseline corrected TEER for each example compound was compared to the average of the DMSO wells and expressed as a percent TEER of vehicle control.

[1] = 1 hr after dosing, read-out: TEER at 60 minutes (% of Vehicle)
[2] = 0.5 h, 30 mins after dosing, read-out: TEER at 30 minutes (% of Vehicle)

SMILES	activity at 1 µM [1]	activity at 1 µM [2]
N#Cc1cc(Cl)cc2c1C[C@H](N1CCNCC1)[C@H]2Oc1ccc(S(=O)(=O)N[C@H]2CCN(CCOCCNC(=O)NCCCCNC(=O)NCCOCCN3CC[C@H](NS(=O)(=O)c4ccc(O[C@H]5c6cc(Cl)cc(C#N)c6C[C@@H]5N5CCNCC5)c(F)c4)C3)C2)cc1F [Example 110, 4-([(1S,2S)-6-Chloro-4-cyano-2-(piperazin-1-yl)-2,3-dihydro-1H-inden-1-yl]oxy)-N—[(S)-1-(20-[(S)-3-[(4-([(1S,2S)-6-chloro-4-cyano-2-(piperazin-1-yl)-2,3-dihydro-1H-inden-1-yl]oxy)-3-fluorophenyl)sulfonamide)pyrrolidin-1-yl]-7,14-dioxo-3,18-dioxa-6,8,13,15-tetraazaicosyl)pyrrolidin-3-yl]-3-fluorobenzenesulfonamide; tetra(trifluoroacetate)]	100 to 130%	> 130%
O=C(NCCCCNC(=O)NCCOCCOCCNS(=O)(=O)c1ccc(O[C@H]2c3cc(Cl)cc(Cl)c3C[C@@H]2N2CCNCC2)cc1)NCCOCCOCCNS(=O)(=O)c1ccc(O[C@H]2c3cc(Cl)cc(Cl)c3C[C@@H]2N2CCNCC2)cc1 [Example 31, 3-[2-(2-[2-[(4-[[(1S,2S)-4,6-Dichloro-2-(piperazin-1-yl)-2,3-dihydro-1H-inden-1-yl]oxy]benzene)sulfonamido]ethoxy]ethoxy)ethyl]-1-[4-([[2-(2-[2-[(4-[[(1S,2S)-4,6-dichloro-2-(piperazin-1-yl)-2,3-dihydro-1H-inden-1-yl]oxy]benzene)sulfonamido]ethoxy]ethoxy)ethyl]carbamoyl]amino)butyl]urea; bis(trifluoroacetic acid)]	> 130%	100 to 130%
O=C(NCCCCNC(=O)NCCOCCOCCNS(=O)(=O)c1ccc(O[C@H]2c3cc(Cl)cc(Cl)c3C[C@@H]2N2CCNCC2)c(F)c1)NCCOCCOCCNS(=O)(=O)c1ccc(O[C@H]2c3cc(Cl)cc(Cl)c3C[C@@H]2N2CCNCC2)c(F)c1 [Example 33, 3-[2-(2-[2-[(4-[[(1S,2S)-4,6-Dichloro-2-(piperazin-1-yl)-2,3-dihydro-1H-inden-1-yl]oxy]-3-fluorobenzene)sulfonamido]ethoxy]ethoxy)ethyl]-1-[4-[[(2-(2-[2-[(4-[[(1S,2S)-4,6-dichloro-2-(piperazin-1-yl)-2,3-dihydro-1H-inden-1-y]oxy]-3-fluorobenzene)sulfonamido]ethoxy]ethoxy)ethyl]carbamoyl]amino)butyl]urea; bis(trifluoroacetic acid)]	> 130%	100 to 130%
Cc1cc(Cl)cc2c1C[C@H](N(C)C)[C@H]2Oc1ccc(S(=O)(=O)NCCOCCOCCNC(=O)NCCCCNC(=O)NCCOCCOCCNS(=O)(=O)c2ccc(O[C@H]3c4cc(Cl)cc(C)c4C[C@@H]3N(C)C)c(F)c2)cc1F [Example 24, 3-[2-(2-[2-[(4-[[(1S,2S)-6-Chloro-2-(dimethylamino)-4-methyl-2,3-dihydro-1H-inden-1-yl]oxy]-3-fluorobenzene)sulfonamido]ethoxy]ethoxy)ethyl]-1-[4-([[2-(2-[2-[(4-[[(1S,2S)-6-chloro-2-(dimethylamino)-4-methyl-2,3-dihydro-1H-inden-1-yl]oxy]-3-fluorobenzene)sulfonamido]ethoxy]ethoxy)ethyl]carbamoyl]amino)butyl]urea]	100 to 130%	100 to 130%
Cc1cc(S(=O)(=O)N[C@H]2CCN(CCOCCNC(=O)NCCCCNC(=O)NCCOCCN3CC[C@H](NS(=O)(=O)c4ccc(O[C@H]5c6cc(Cl)cc(Cl)c6C[C@@H]5N(C)C)c(C)c4)C3=O)C2=O)ccc1O[C@H]1c2cc(Cl)cc(Cl)c2C[C@@H]1N(C)C [Example 91, 1-(2-[2-[(3S)-3-[(4-[[(1S,2S)-4,6-Dichloro-2-(dimethylamino)-2,3-dihydro-1H-inden-1-yl]oxy]-3-methylbenzene)sulfonamido]-2-oxopyrrolidin-1-yl]ethoxy]ethyl)-3-(4-[[(2-[2-[(3S)-3-[(4-[[(1S,2S)-4,6-dichloro-2-(dimethylamino)-2,3-dihydro-1H-inden-1-yl]oxy]-3-methylbenzene)sulfonamido]-2-oxopyrrolidin-1-yl]ethoxy]ethyl)carbamoyl]amino]butyl)urea]	100 to 130%	100 to 130%
N#Cc1cc(Cl)cc2c1C[C@H](N1CCCNCC1)[C@H]2Oc1ccc(S(=O)(=O)N[C@H]2CCN(CCOCCNC(=O)NCCCCNC(=O)NCCOCCN3CC[C@H](NS(=O)(=O)c4ccc(O[C@H]5c6cc(Cl)cc(C#N)c6C[C@@H]5N5CCCNCC5)cc4)C3)C2)cc1 [Example 126, 4-([(1S,2S)-6-Chloro-4-cyano-2-(1,4-diazepan-1-yl)-2,3-dihydro-1H-inden-1-yl]oxy)-N—[(S)-1-(20-[(S)-3-([4-([(1S,2S)-6-chloro-4-cyano-2-(1,4-diazepan-1-yl)-2,3-dihydro-1H-inden-1-yl]oxy)phenyl]sulfonamido)pyrrolidin-1-yl]-7,14-dioxo-3,18-dioxa-6,8,13,15-tetraazaicosyl)pyrrolidin-3-yl]benzenesulfonamide]	100 to 130%	100 to 130%
O=C(NCCCCNC(=O)NCCOCCN1CC[C@H](NS(=O)(=O)c2ccc(O[C@H]3c4cc(Cl)cc(Cl)c4C[C@@H]3N3CCNCC3)c(F)c2)C1)NCCOCCN1CC[C@H](NS(=O)(=O)c2ccc(O[C@H]3c4cc(Cl)cc(Cl)c4C[C@@H]3N3CCNCC3)c(F)c2)C1 [Example 106, 4-([(1S,2S)-4,6-Dichloro-2-(piperazin-1-yl)-2,3-dihydro-1H-inden-1-yl]oxy)-N—[(S)-1-(20-[(S)-3-([4-([(1S,2S)-4,6-dichloro-2-(piperazin-1-yl)-2,3-dihydro-1H-inden-1-yl]oxy)-3-fluorophenyl]sulfonamido)pyrrolidin-1-yl]-7,14-dioxo-3,18-dioxa-6,8,13,15-tetraazaicosyl)pyrrolidin-3-yl]-3-fluorobenzenesulfonamide; tetra(trifluoroacetate)]	> 130%	> 130%
Cc1cc(Cl)cc2c1C[C@H](N1CCC[C@@H](N(C)C)C1)[C@H]2Oc1ccc(S(=O)(=O)NCCOCCOCCNC(=O)NCCCCNC(=O)NCCOCCOCCNS(=O)(=O)c2ccc(O[C@H]3c4cc(Cl)cc(C)c4C[C@@H]3N3CCC[C@@H](N(C)C)C3)c(F)c2)cc1F [Example 30, 3-[2-(2-[2-[(4-[[(1S,2S)-6-Chloro-2-[(3R)-3-(dimethylamino)piperidin-1-yl]-4-methyl-2,3-dihydro-1H-inden-1-yl]oxy]-3-fluorobenzene)sulfonamido]ethoxy]ethoxy)ethyl]-1-[4-([[2-(2-[2-[(4-[[(1S,2S)-6-chloro-2-[(3R)-3-(dimethylamino)piperidin-1-yl]-4-methyl-2,3-dihydro-1H-inden-1-yl]oxy]-3-fluorobenzene)sulfonamido]ethoxy]ethoxy)ethyl]carbamoyl]amino)butyl]urea; bis(trifluoroacetic acid)]	100 to 130%	100 to 130%
O=C(NCCCCNC(=O)NCCOCCN1CC[C@@H](NS(=O)(=O)c2ccc(O[C@H]3c4cc(Cl)cc(Cl)c4C[C@@H]3N3CCNCC3)c(F)c2)C1)NCCOCCN1CC[C@@H](NS(=O)(=O)c2ccc(O[C@H]3c4cc(Cl)cc(Cl)c4C[C@@H]3N3CCNCC3)c(F)c2)C1 [Example 105, 4-([(1S,2S)-4,6-Dichloro-2-(piperazin-1-yl)-2,3-dihydro-1H-inden-1-yl]oxy)-N—[(R)-1-(20-[(R)-3-([4-([(1S2S)-4,6-dichloro-2-(piperazin-1-yl)-2,3-dihydro-1H-inden-1-yl]oxy)-3-fluorophenyl]sulfonamido)pyrrolidin-1-yl]-7,14-dioxo-3,18-dioxa-6,8,13,15-tetraazaicosyl)pyrrolidin-3-yl]-3-fluorobenzenesulfonamide; tetra(trifluoroacetate)]	> 130%	> 130%
